In brackets after ≈: the same amount, converted by molar mass. Residues, ends and D or L forms follow the SMILES beside them.
How the values were obtained:
S. pyogenes ATCC 19615 = experiment: MIC/MBC broth microdilution, S. pyogenes; assay type: cell-based, Streptococcus pyogenes; details: S. pyogenes
Outline: (§1)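 Broth microdilution per NCCLS in BHI, ~10^5 CFU/mL inoculum, serially diluted peptidomimetics (stock 1024 μg/mL in water with 5–10% ethanol or DMSO), 18 h at 37 °C. MIC: lowest concentration with no obvious growth (≥90% of untreated); MBC: ≤3 colonies, ≥99.9% kill.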

S. cohnii c.i. = experiment: MIC/MBC broth microdilution, S. cohnii; assay type: cell-based, Staphylococcus cohnii
Outline: as §1

E. faecalis c.i. = experiment: MIC/MBC broth microdilution, E. faecalis; assay type: cell-based, Enterococcus faecalis
Outline: as §1

S. agalactiae ATCC 27956 = experiment: MIC/MBC broth microdilution, S. agalactiae; assay type: cell-based, Streptococcus agalactiae; details: S. agalactiae
Outline: as §1

S. intemrdius c.i. = experiment: MIC/MBC broth microdilution, S. intermedius; assay type: cell-based, Staphylococcus intermedius
Outline: as §1

P. vulgaris ATCC 6896 = experiment: MIC/MBC broth microdilution, P. vulgaris; assay type: cell-based, Proteus vulgaris
Outline: as §1

P. aeruginosa ATCC 10145 = experiment: MIC/MBC broth microdilution, P. aeruginosa; assay type: cell-based
Outline: as §1

[1] = Stability / presence in human plasma; assay type: in vitro ADME; details: 24 h incubation at 37 °C
Procedure: Blood was drawn from healthy volunteers, and lithium/heparin holding tubes were used to remove the clot by centrifugation. The plasma was aliquoted in sterile conditions and incubated with the desired compounds for 24 h at 37 °C. The samples were prepared under sterile conditions following the previously described protocol. The samples were collected at six time points (0, 1, 2, 3, 6, and 24 h) for determining stability in water solutions, and time points of 0, 10, 20, 30, 40, 50, and 60 min, as well as of 2, 3, 6, and 24 h, for determining stability in human plasma. The analysis was performed by HPLC using a Kromasil C8 column (5 μm, 90 Å, 1.0 mm × 250 mm) monitored by a PDA or ELDS-LT II detector. For quantification, peak areas were compared to a calibration curve calculated by Shimadzu LCsolution Software (Kyoto, Japan). Graphs were prepared in GraphPad Prism (Boston, USA).

SMILES	MBC (S. pyogenes ATCC 19615; H2O) [µg/mL]	MIC (S. pyogenes ATCC 19615; H2O) [µg/mL]	MBC (S. pyogenes ATCC 19615; water additive DMSO) [µg/mL]	MIC (S. pyogenes ATCC 19615; water additive DMSO) [µg/mL]	MBC (S. pyogenes ATCC 19615; water additive EtOH) [µg/mL]	MIC (S. pyogenes ATCC 19615; water additive EtOH) [µg/mL]	MBC (S. cohnii c.i.; H2O) [µg/mL]	MIC (S. cohnii c.i.; H2O) [µg/mL]	MBC (S. cohnii c.i.; water additive DMSO) [µg/mL]	MIC (E. faecalis c.i.; H2O) [µg/mL]	MIC (E. faecalis c.i.; water additive DMSO) [µg/mL]	MIC (E. faecalis c.i.; water additive EtOH) [µg/mL]	MIC (S. agalactiae ATCC 27956; H2O) [µg/mL]	MIC (S. agalactiae ATCC 27956; water additive EtOH) [µg/mL]	MIC (P. vulgaris ATCC 6896; H2O) [µg/mL]	MIC (P. vulgaris ATCC 6896; water additive DMSO) [µg/mL]	MIC (P. vulgaris ATCC 6896; water additive EtOH) [µg/mL]	MBC (P. aeruginosa ATCC 10145; H2O) [µg/mL]	MIC (P. aeruginosa ATCC 10145; water additive EtOH) [µg/mL]	MIC (P. aeruginosa ATCC 10145; water additive DMSO) [µg/mL]	also measured
CC(C)[C@@H](CNC(=O)C(=Cc1ccccc1)c1ccccc1)NC(=O)[C@H](CCCNC(=N)N)NC(=O)[C@H](CCCCNC(=N)N)NC(=O)OCc1ccccc1 [Compound A-192]	8 (≈ 10.4 µM)	8 (≈ 10.4 µM)	8 (≈ 10.4 µM)	8 (≈ 10.4 µM)	8 (≈ 10.4 µM)	4 (≈ 5.2 µM)	32 (≈ 41.6 µM)	16 (≈ 20.8 µM)	32 (≈ 41.6 µM)	> 512	> 512	256 (≈ 333 µM)	32 (≈ 41.6 µM)	32 (≈ 41.6 µM)	> 512	> 512	> 512	256 (≈ 333 µM)	> 512		MIC (S. cohnii c.i.; water additive DMSO): 32 µg/mL (≈ 41.6 µM); MBC (S. cohnii c.i.; water additive EtOH): 32 µg/mL (≈ 41.6 µM); MIC (S. cohnii c.i.; water additive EtOH): 16 µg/mL (≈ 20.8 µM); MBC (E. faecalis c.i.; water additive EtOH): 512 µg/mL (≈ 666 µM); MBC (S. intemrdius c.i.; H2O): 16 µg/mL (≈ 20.8 µM); MIC (S. intemrdius c.i.; H2O): 8 µg/mL (≈ 10.4 µM); MBC (S. intemrdius c.i.; water additive DMSO): 16 µg/mL (≈ 20.8 µM); MIC (S. intemrdius c.i.; water additive DMSO): 8 µg/mL (≈ 10.4 µM); MBC (S. intemrdius c.i.; water additive EtOH): 16 µg/mL (≈ 20.8 µM); MIC (S. intemrdius c.i.; water additive EtOH): 8 µg/mL (≈ 10.4 µM)
CC(C)[C@@H](CNC(=O)C(=Cc1ccccc1)c1ccccc1)NC(=O)[C@H](Cc1c[nH]cn1)NC(=O)[C@H](CCCCNC(=N)N)NC(=O)OCc1ccccc1 [Compound A-193]	16 (≈ 21.3 µM)	8 (≈ 10.7 µM)	16 (≈ 21.3 µM)	8 (≈ 10.7 µM)	16 (≈ 21.3 µM)	8 (≈ 10.7 µM)			256 (≈ 341 µM)	256 (≈ 341 µM)	512 (≈ 683 µM)			32 (≈ 42.7 µM)	> 512	> 512	> 512		> 512	512 (≈ 683 µM)	MBC (E. faecalis c.i.; H2O): 512 µg/mL (≈ 683 µM); MBC (E. faecalis c.i.; water additive EtOH): 256 µg/mL (≈ 341 µM); MBC (S. intemrdius c.i.; H2O): 32 µg/mL (≈ 42.7 µM); MIC (S. intemrdius c.i.; H2O): 16 µg/mL (≈ 21.3 µM); MIC (S. intemrdius c.i.; water additive DMSO): 32 µg/mL (≈ 42.7 µM); MBC (S. intemrdius c.i.; water additive EtOH): 32 µg/mL (≈ 42.7 µM); MIC (S. intemrdius c.i.; water additive EtOH): 16 µg/mL (≈ 21.3 µM); MIC (P. aeruginosa ATCC 10145; H2O): > 512 µg/mL
CC(C)[C@H](NC(=O)[C@H](Cc1c[nH]cn1)NC(=O)[C@H](CCCNC(=N)N)NC(=O)OCc1ccccc1)C(=O)NCCc1ccccc1 [Compound A-219] (HELM PEPTIDE1{[O=C(OCc1ccccc1)[*:2]].R.H.V.[c1ccc(CCN[*:1])cc1]}$$$$V2.0)	512 (≈ 790 µM)	512 (≈ 790 µM)	512 (≈ 790 µM)	512 (≈ 790 µM)	512 (≈ 790 µM)	512 (≈ 790 µM)		> 512		> 512	> 512	> 512	> 512	> 512	> 512	> 512	> 512	> 512	512 (≈ 790 µM)	256 (≈ 395 µM)	MIC (S. cohnii c.i.; water additive DMSO): > 512 µg/mL; MIC (S. cohnii c.i.; water additive EtOH): > 512 µg/mL; MIC (S. agalactiae ATCC 27956; water additive DMSO): > 512 µg/mL; MIC (P. aeruginosa ATCC 10145; H2O): 512 µg/mL (≈ 790 µM); MBC (P. aeruginosa ATCC 10145; water additive DMSO): 512 µg/mL (≈ 790 µM); MBC (P. aeruginosa ATCC 10145; water additive EtOH): > 512 µg/mL; present in human plasma [1]: 85–90%
CC(C)[C@H](NC(=O)[C@H](Cc1c[nH]cn1)NC(=O)[C@H](CCCCN)NC(=O)OCc1ccccc1)C(=O)NCCc1ccccc1 [Compound A-220] (HELM PEPTIDE1{[O=C(OCc1ccccc1)[*:2]].K.H.V.[c1ccc(CCN[*:1])cc1]}$$$$V2.0)	> 512	512 (≈ 826 µM)	256 (≈ 413 µM)		512 (≈ 826 µM)	512 (≈ 826 µM)	512 (≈ 826 µM)	256 (≈ 413 µM)	512 (≈ 826 µM)	> 512	> 512	> 512	512 (≈ 826 µM)	512 (≈ 826 µM)	> 512	> 512	> 512	> 512	512 (≈ 826 µM)	512 (≈ 826 µM)	MIC (S. cohnii c.i.; water additive DMSO): 256 µg/mL (≈ 413 µM); MBC (S. cohnii c.i.; water additive EtOH): 512 µg/mL (≈ 826 µM); MIC (S. cohnii c.i.; water additive EtOH): 256 µg/mL (≈ 413 µM); MBC (S. agalactiae ATCC 27956; H2O): 512 µg/mL (≈ 826 µM); MBC (S. agalactiae ATCC 27956; water additive DMSO): 512 µg/mL (≈ 826 µM); MIC (S. agalactiae ATCC 27956; water additive DMSO): 512 µg/mL (≈ 826 µM); MBC (S. agalactiae ATCC 27956; water additive EtOH): 512 µg/mL (≈ 826 µM); MIC (P. aeruginosa ATCC 10145; H2O): 512 µg/mL (≈ 826 µM); MBC (P. aeruginosa ATCC 10145; water additive DMSO): > 512 µg/mL; MBC (P. aeruginosa ATCC 10145; water additive EtOH): > 512 µg/mL; present in human plasma [1]: 85–90%
CC(C)[C@H](NC(=O)[C@H](CCCNC(=N)N)NC(=O)[C@H](CCCNC(=N)N)NC(=O)OCc1ccccc1)C(=O)NCCc1ccccc1 [Compound A-221] (HELM PEPTIDE1{[O=C(OCc1ccccc1)[*:2]].R.R.V.[c1ccc(CCN[*:1])cc1]}$$$$V2.0)	256 (≈ 384 µM)		> 512	512 (≈ 768 µM)	256 (≈ 384 µM)		256 (≈ 384 µM)		256 (≈ 384 µM)	> 512	> 512	> 512	256 (≈ 384 µM)	256 (≈ 384 µM)	> 512	> 512	> 512	256 (≈ 384 µM)		32 (≈ 48 µM)	MBC (S. cohnii c.i.; water additive EtOH): 256 µg/mL (≈ 384 µM); MBC (S. agalactiae ATCC 27956; H2O): 512 µg/mL (≈ 768 µM); MBC (S. agalactiae ATCC 27956; water additive DMSO): 512 µg/mL (≈ 768 µM); MIC (S. agalactiae ATCC 27956; water additive DMSO): 256 µg/mL (≈ 384 µM); MBC (S. agalactiae ATCC 27956; water additive EtOH): 512 µg/mL (≈ 768 µM); present in human plasma [1]: 85–90%

From publication PMC12332667, “Role of Structural Modifications in Peptidomimetic Compounds as Potential Antimicrobial Agents against Staphylococcus aureus and Streptococcus pyogenes: Balancing Bioavailability, Safety, and Antimicrobial Activity” (ACS Omega, 2025)
